Columns and labels:
MIA PACA-2 = experiment: Cell proliferation assay (CellTiter-Glo/CellTiter-Blue); type: cell-based; conditions: Homo sapiens, MIA PaCa-2, 72 h, read-out: IC50 anti-proliferation
Protocol: (§1) MCF-7, T47D, MDA-MB-231, MIA Paca-2, PANC-1, SW620, HT-29, U87MG, and A549 cell lines were purchased from the Cell Bank of Chinese Academy of Science (Shanghai, China). Cells were cultured in DMEM or RPMI-1640 (Gibco, BRL, USA) supplemented with 10% FBS (HyClone, Logan, USA) and 50 IU penicillin/streptomycin in a humidified atmosphere with 5% CO 2 at 37°C. The effects of SY-707 on cell proliferation were measured using CellTiter-Glo ® or CellTiter-Blue ® Cell Viability Assay kits (Promega, Beijing, China). In brief, cells were seeded in 96-well plates at low destiny with 195 μL of medium per well. The stock solutions of compounds were 3-fold serially diluted with DMSO from 10 mM to 0.3 nM, and 4 μL of solution at each concentration was mixed with 96 μL of serum free medium, then 5 μL of the resulted solution was added to each well. After treatment for 72 h, 25 μL of CellTiter-Glo ® reagent (for adherent cells) or 35 μL CellTiter-Blue ® reagent (for suspension cells) was added to each well, and the resulted mixture was further incubated at room temperature for 10 min or 4 h. The luminescence signals were measured using EnVision ® multilabel plate reader (PerkinElmer), and the fluorescent signals were examined using FlexStation 3 (Molecular Devices, Sunnyvale, USA), and the IC 50 values were calculated using Prism ® software (Version 5.0) and presented as the average of three independent experiments performed in duplicate.

T47D = experiment: as above; type: cell-based; conditions: Homo sapiens, 72 h, read-out: IC50 anti-proliferation
Protocol: as §1

MCF-7 = experiment: as above; type: cell-based; conditions: Homo sapiens, MCF7, 72 h, read-out: IC50 anti-proliferation
Protocol: as §1

FAK = FAK (Homo sapiens, UniProt Q05397); experiment: HTRF kinase enzyme assay; type: biochemical; conditions: ATP at Km
Protocol: Homogeneous time-resolved fluorescence (HTRF) assay was performed to analyze kinase enzyme activity and compound potency using HTRF ® KinEASE ^TM-TK kit (Cisbio Bioassays, Shanghai, China). […] The resulted solutions were briefly mixed, centrifuged and incubated for 5 min. Finally, 2.5 μL of 4× ATP/TK peptide (ATP at K m for each kinase) solution was added to the reaction system to initiate the reaction. The enzymatic reaction was carried out for 60-120 min at 23°C, then terminated by addition of 5 μL of detection solution containing TK antibody-cryptate and 5 μL of Streptravidin-XL-665. The mixture was incubated for additional 1 h at 23°C. The fluorescent signals were measured with an EnVision multilabel plate reader (PerkinElmer). IC 50 values of the compounds were calculated using the GraFit software (Version 6.0) and presented as the mean of three independent experiments performed in duplicate.

[1] = test system: phosphorylation of Pyk2 at Tyr402; experiment: Western blot of Pyk2 phosphorylation in MCF-7 cells; type: cell-based; conditions: MCF-7, 1 h treatment
Protocol: Equal amounts of cell lysates were loaded onto 10% SDS-PAGE gel and separated by electrophoresis. Separated proteins were then electro-transferred onto polyvinylidene fluoride (PVDF) membranes (Millipore, Bedford, USA). After being blocked with Tris-buffered saline containing 0.1% Tween-20 (TBST) and 5% bovine serum albumin (BSA), the membranes were incubated with primary antibodies at room temperature for 2 hours or at 4°C, then washed with TBST, followed by treatment with horseradish peroxidase (HRP)-conjugated goat anti-rabbit IgG secondary antibody at room temperature for another 1 h. The targeted protein bands were visualized using an enhanced chemiluminescence (ECL) plus system (Thermo Fisher Scientific). […]
Figure4 Inhibitory effects of SY-707 on the phosphorylation of FAK(A,B) Concentration-dependent inhibition of SY-707 on phosphorylation of FAK in T47D (A) and MCF-7 (B) cells. […] Cell lysates were analyzed by western blot analysis using specific antibodies against p-FAK, p-Pyk2, p-AKT and p-ERK respectively. […] Cell lysates were analyzed by western blot analysis using specific antibodies against p-IGF1R, p-STAT3, p-AKT and p-ERK respectively.

Tissue distribution = type: in vivo; conditions: SD rats, oral 15 mg/kg; except the uterus and spleen
Protocol: In addition, SY-707 also had good clearance parameters and oral bioavailability in these two species.
Supplementary Figure S1. The tissue distribution profile of SY-707 Tissue distribution of SY-707 in SD rats was measured after oral administration of SY-707 (15 mg/kg).

T47D xenograft = experiment: T47D tumor xenograft study; type: in vivo, nude mice
Protocol: Due to the strong cell growth inhibition potency of SY-707, we firstly evaluate its in vivo anti-cancer activity in T47D xenograft model mice. In this model, mice were orally administered twice a day with vehicle or SY-707 at dose of 100, 50 or 25 mg/kg after tumor size reached 150–300 mm ^3.
Next, we evaluated the combination effects of SY-707 and paclitaxel (an approved drug for breast cancer therapy) in T47D xenograft model. Mice bearing T47D breast cancer were divided randomly into 4 groups: vehicle, SY-707 (100 mg/kg/day), paclitaxel (10 mg/kg/week), and SY-707 plus paclitaxel groups.

[2] = biological target: FAK, Pyk2, LTK, IRK and IGF1R; experiment: HTRF kinase enzyme assay, summary over several kinases; type: biochemical; conditions: around; span over the named kinases
Protocol: Homogeneous time-resolved fluorescence (HTRF) assay was performed to analyze kinase enzyme activity and compound potency using HTRF ® KinEASE ^TM-TK kit (Cisbio Bioassays, Shanghai, China). Compound SY-707 was serially diluted by 3 folds from 1 mM stock solution in DMSO, and 4 μL of the diluted solution of the compounds was added to 96 μL of reaction buffer (50 mM HEPES, pH 7.0, 0.1 mM Na 3VO 4, 0.01% BAS, 5 mM MgCl 2, 1 mM DTT), then 2.5 μL of 4× compound solution and 5 μL of 2× kinases solution were added to a 384-well plate (OptiPlate-384; PerkinElmer, Wellesley, USA ). The resulted solutions were briefly mixed, centrifuged and incubated for 5 min. Finally, 2.5 μL of 4× ATP/TK peptide (ATP at K m for each kinase) solution was added to the reaction system to initiate the reaction. The enzymatic reaction was carried out for 60-120 min at 23°C, then terminated by addition of 5 μL of detection solution containing TK antibody-cryptate and 5 μL of Streptravidin-XL-665. The mixture was incubated for additional 1 h at 23°C. The fluorescent signals were measured with an EnVision multilabel plate reader (PerkinElmer). IC 50 values of the compounds were calculated using the GraFit software (Version 6.0) and presented as the mean of three independent experiments performed in duplicate.

FAK, sequence (Q05397 whole entry): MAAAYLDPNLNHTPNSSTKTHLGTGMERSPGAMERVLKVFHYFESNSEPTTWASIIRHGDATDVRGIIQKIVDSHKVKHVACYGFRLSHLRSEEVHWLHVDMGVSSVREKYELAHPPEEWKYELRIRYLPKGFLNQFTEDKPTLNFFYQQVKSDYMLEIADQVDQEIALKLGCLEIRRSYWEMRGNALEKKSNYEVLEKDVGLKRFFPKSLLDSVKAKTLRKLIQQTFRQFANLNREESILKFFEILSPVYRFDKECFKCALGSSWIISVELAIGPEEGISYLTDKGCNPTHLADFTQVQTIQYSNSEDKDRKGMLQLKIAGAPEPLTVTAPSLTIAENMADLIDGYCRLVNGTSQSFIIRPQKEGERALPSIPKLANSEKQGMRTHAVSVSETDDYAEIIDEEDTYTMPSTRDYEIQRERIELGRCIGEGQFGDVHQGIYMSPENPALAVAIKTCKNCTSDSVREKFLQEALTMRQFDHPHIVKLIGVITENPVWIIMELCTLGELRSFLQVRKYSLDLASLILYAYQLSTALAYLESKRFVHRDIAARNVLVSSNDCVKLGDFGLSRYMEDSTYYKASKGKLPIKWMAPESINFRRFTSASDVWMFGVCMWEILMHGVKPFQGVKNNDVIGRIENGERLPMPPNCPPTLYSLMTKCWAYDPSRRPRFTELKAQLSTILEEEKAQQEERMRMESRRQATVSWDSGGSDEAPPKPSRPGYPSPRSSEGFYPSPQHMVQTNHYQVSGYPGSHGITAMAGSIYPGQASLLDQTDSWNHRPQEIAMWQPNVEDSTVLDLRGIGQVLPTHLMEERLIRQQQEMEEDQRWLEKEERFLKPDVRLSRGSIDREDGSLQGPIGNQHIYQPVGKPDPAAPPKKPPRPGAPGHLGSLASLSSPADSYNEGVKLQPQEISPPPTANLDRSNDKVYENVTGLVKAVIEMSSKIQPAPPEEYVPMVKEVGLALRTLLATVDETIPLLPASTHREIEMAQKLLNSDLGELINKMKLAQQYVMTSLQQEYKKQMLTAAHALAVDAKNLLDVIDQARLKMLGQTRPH

COc1cc(N2CCC(N3CCN(C)CC3)CC2)ccc1Nc1nc2c(c(Nc3ccccc3S(=O)(=O)NC(C)C)n1)CCN2 [SY-707, N-isopropyl-2-((2-((2-methoxy-4-(4-(4-methylpiperazin-1-yl)piperidin-1-yl)phenyl)amino)-6,7-dihydro-5H-pyrrolo[2,3-d]pyrimidin-4-yl)amino)benzenesulfonamide]
IC50 (MIA PACA-2): 1300 nM
IC50 (T47D): 1800 nM
IC50 (MCF-7): 590 nM
IC50 (FAK): 1.6 ± 0.5 nM
phosphorylation of Pyk2 at Tyr402 [1]: dose-dependently suppressed
distribution in rat tissues (AUC 0–24 h) relative to plasma (Tissue distribution): other organs had lower level of SY-707 than the plasma
tumor growth inhibition rate (T47D xenograft; 25 mg/kg orally twice a day, 21 days, P<0.05): 31%
tumor growth inhibition rate (T47D xenograft; 50 mg/kg orally twice a day, 21 days, P<0.05): 39%
tumor growth inhibition rate (T47D xenograft; 100 mg/kg orally twice a day, 21 days, P<0.01): 61%
tumor growth inhibition rate (T47D xenograft; combination study, SY-707 100 mg/kg/day alone, 24 days): 14%
IC50 [2]: 1 to 10 nM

From publication PMC9909315, “SY-707, an ALK/FAK/IGF1R inhibitor, suppresses growth and metastasis of breast cancer cells” (Acta Biochimica et Biophysica Sinica, 2022)
